Here are results for one compound from US20230181463A1, “OLEOGEL AND OLEOPASTE COMPOSITIONS AND USES THEREOF” (Massachusetts Institute of Technology, priority 2020, published 2023).

Data set [1] can be described thus: Drug release from AZT oleogels in lipolysis medium (simulated intestinal fluid). Conditions: in vitro release over 90 minutes, trapezoidal rule, triplicates. It counts as in vitro ADME. As to the method: Extensive in vitro release studies were conducted to understand the impact of oil, solubilizer and gelling agent on the release of AZT in simulated intestinal fluid (SIF).
Preparation of lipolysis buffer: To prepare lipolysis buffer, tris-maleate (0.474 g), calcium chloride dihydrate (0.275 g), sodium chloride (8.766 g) were weighed and distilled water was added to bring the volume to 1 L. The pH of the buffer was adjusted to pH 6.5 using 5N sodium hydroxide.
Preparation of lipolysis media: L—a phosphotidylcholine (0.576 g/l) and sodium taurodeoxycholate hydrate (1.619 g/l) were added to the lipolysis buffer. Next, the solution was stirred overnight to dissolve all ingredients.
Preparation of pancreatin solution: Three grams of pancreatin was added to 15 ml of lipolysis buffer and stirred on a magnetic stir plate for 10 minutes. The mixture was centrifuged at 28000g, at 5° C. for 10 minutes. The supernant was collected and the pH of the supernant was adjusted to pH 6.5 using 5N sodium hydroxide solution.
Preparation of negative control: To avoid the technical difficulty in material weighing, 40 mg of AZT powder was dispersed into 10 ml of methanol. It was sonicated for 1 minute to get a clear solution. One milliliter was taken into 3 separate Falcon tube and remained still to evaporate the solvent. […]

Data set [2] in a line: In silico pharmacokinetic modelling of AZT oleogels. As to conditions: first order fit to in vitro release data.
Description: In vivo pharmacokinetics of the various formulations were calculated using the data obtained from in vitro release studies. To achieve this, pharmacokinetic modeling studies were conducted in two steps. In the first step, first order equations to in vitro release data were used to estimate rate constant for drug release (krel) and the extent of drug release (Agel, t=0). The rate constant of drug release was considered a measure of the speed of drug release. The extent of drug release or Agel, t=0 was a measure of the total amount of drug that could be released from the formulation at 90 min, which likely depended on the partition coefficient for AZT between the oily formulation and aqueous release medium. […] In the second step, one-compartment oral drug administration model was constructed. Using krel and Agel, t=0 as input, pharmacokinetic parameters such as maximum concentration (Cmax), time to maximum concentration (Tmax) and serum drug exposure or area under the curve (AUCfit) were determined. […]

`CC[C@H]1OC(=O)[C@H](C)[C@@H](O[C@H]2C[C@@](C)(OC)[C@@H](O)[C@H](C)O2)[C@H](C)[C@@H](O[C@@H]2O[C@H](C)C[C@H](N(C)C)[C@H]2O)[C@](C)(O)C[C@@H](C)CN(C)[C@H](C)[C@@H](O)[C@]1(C)O` [Control, azithromycin]: the “Average AUC” value in data set [1] is 127.23 mg·h/L. The same compound returned an average krel in data set [2] of 5.28 h⁻¹. For the same compound, the “Average Agel, t=0” value in data set [2] (4.00 mg AZT put in) is recorded as 3.98 mg.
